Results from ChEMBL document CHEMBL3112450, “Synthesis and in vitro antitumor evaluation of primary amine substituted quinazoline linked benzimidazole” (Bioorg Med Chem Lett, 2014).

Experiments:
Type in all cases: functional
UACC-62 [1] = test: Cytotoxicity against human UACC62 cells assessed as cell growth at 10^-7 M after 48 hrs by SRB assay; details: UACC-62, 48 h, read-out: Activity
HOP-62 [2] = test: Cytotoxicity against human HOP62 cells after 48 hrs by SRB assay; details: HOP-62, 48 h
MDA-MB-468 = test: Cytotoxicity against human MDA-MB-468 cells assessed as cell growth at 10^-4 M after 48 hrs by SRB assay; details: MDA-MB-468, 48 h, read-out: Activity
BT-549 = test: Cytotoxicity against human BT549 cells assessed as cell growth at 10^-4 M after 48 hrs by SRB assay; details: BT-549, 48 h, read-out: Activity
MDA-MB-231 = test: Cytotoxicity against human MDA-MB-231 cells assessed as cell growth at 10^-4 M after 48 hrs by SRB assay; details: MDA-MB-231, 48 h, read-out: Activity
DU-145 = test: Cytotoxicity against human DU145 cells assessed as cell growth at 10^-4 M after 48 hrs by SRB assay; details: DU-145, 48 h, read-out: Activity
MDA-MB-435 = test: Cytotoxicity against human MDA-MB-435 cells assessed as cell growth at 10^-7 M after 48 hrs by SRB assay; details: MDA-MB-435, 48 h, read-out: Activity
HCT-116 [3] = test: Cytotoxicity against human HCT116 cells assessed as cell growth at 10^-7 M after 48 hrs by SRB assay; details: HCT-116, 48 h, read-out: Activity
HL-60(TB) = test: Cytotoxicity against human HL-60(TB) cells assessed as cell growth at 10^-7 M after 48 hrs by SRB assay; details: HL-60, 48 h, read-out: Activity
[4] = Cytotoxicity against human Hs578T cells assessed as cell growth at 10^-8 M after 48 hrs by SRB assay; details: Hs-578T, read-out: Activity
SNB-19 = test: Cytotoxicity against human SNB19 cells assessed as cell growth at 10^-4 M after 48 hrs by SRB assay; details: SNB-19, 48 h, read-out: Activity
HCT-116 [5] = test: Cytotoxicity against human HCT116 cells assessed as cell growth at 10^-4 M after 48 hrs by SRB assay; details: HCT-116, 48 h, read-out: Activity
NCI-H460 [6] = test: Cytotoxicity against human NCI-H460 cells assessed as cell growth at 10^-4 M after 48 hrs by SRB assay; details: NCI-H460, 48 h, read-out: Activity
HOP-62 [7] = test: Cytotoxicity against human HOP62 cells assessed as cell growth at 10^-4 M after 48 hrs by SRB assay; details: HOP-62, 48 h, read-out: Activity
MOLT-4 = test: Cytotoxicity against human MOLT4 cells assessed as cell growth at 10^-4 M after 48 hrs by SRB assay; details: MOLT-4, 48 h, read-out: Activity
786-0 [8] = test: Cytotoxicity against human 786-0 cells assessed as cell growth at 10^-8 M after 48 hrs by SRB assay; details: 786-0, 48 h, read-out: Activity
SK-OV-3 = test: Cytotoxicity against human SKOV3 cells assessed as cell growth at 10^-8 M after 48 hrs by SRB assay; details: SK-OV-3, 48 h, read-out: Activity
SK-MEL-28 = test: Cytotoxicity against human SK-MEL-28 cells assessed as cell growth at 10^-8 M after 48 hrs by SRB assay; details: SK-MEL-28, 48 h, read-out: Activity
NCI-H23 = test: Cytotoxicity against human NCI-H23 cells assessed as cell growth at 10^-8 M after 48 hrs by SRB assay; details: NCI-H23, 48 h, read-out: Activity
SR = test: Cytotoxicity against human SR cells assessed as cell growth at 10^-8 M after 48 hrs by SRB assay; details: read-out: Activity
[9] = Cytotoxicity against human UO31 cells after 48 hrs by SRB assay; details: UO-31, 48 h
OVCAR-8 = test: Cytotoxicity against human OVCAR8 cells after 48 hrs by SRB assay; details: OVCAR-8, 48 h
UACC-62 [10] = test: Cytotoxicity against human UACC62 cells after 48 hrs by SRB assay; details: UACC-62, 48 h
SF-268 = test: Cytotoxicity against human SF268 cells after 48 hrs by SRB assay; details: SF-268, 48 h
[11] = Cytotoxicity against human UO31 cells assessed as cell growth at 10^-6 M after 48 hrs by SRB assay; details: UO-31, 48 h, read-out: Activity
HOP-92 [12] = test: Cytotoxicity against human HOP92 cells assessed as growth inhibition at 10 uM after 48 hrs by SRB assay; details: HOP-92, 48 h, read-out: GI
SK-MEL-5 = test: Cytotoxicity against human SK-MEL-5 cells assessed as cell growth at 10^-6 M after 48 hrs by SRB assay; details: SK-MEL-5, 48 h, read-out: Activity
M14 = test: Cytotoxicity against human M14 cells assessed as cell growth at 10^-6 M after 48 hrs by SRB assay; details: M14, 48 h, read-out: Activity
Malme-3M = test: Cytotoxicity against human MALME-3M cells assessed as cell growth at 10^-6 M after 48 hrs by SRB assay; details: read-out: Activity
U-251 = test: Cytotoxicity against human U251 cells assessed as cell growth at 10^-6 M after 48 hrs by SRB assay; details: U-251, 48 h, read-out: Activity
SW-620 = test: Cytotoxicity against human SW620 cells assessed as cell growth at 10^-6 M after 48 hrs by SRB assay; details: SW-620, 48 h, read-out: Activity
NCI-H460 [13] = test: Cytotoxicity against human NCI-H460 cells assessed as cell growth at 10^-6 M after 48 hrs by SRB assay; details: NCI-H460, 48 h, read-out: Activity
HOP-92 [14] = test: Cytotoxicity against human HOP92 cells assessed as cell growth at 10^-6 M after 48 hrs by SRB assay; details: HOP-92, 48 h, read-out: Activity
T47D = test: Cytotoxicity against human T47D cells assessed as cell growth at 10^-7 M after 48 hrs by SRB assay; details: read-out: Activity
TK-10 = test: Cytotoxicity against human TK10 cells assessed as cell growth at 10^-7 M after 48 hrs by SRB assay; details: TK-10, 48 h, read-out: Activity
786-0 [15] = test: Cytotoxicity against human 786-0 cells assessed as cell growth at 10^-7 M after 48 hrs by SRB assay; details: 786-0, 48 h, read-out: Activity

C=CCn1c(C)nc2ccc(Nc3nc(Nc4ccc5nc(C)n(CC=C)c5c4)c4ccccc4n3)cc21
growth at 0.1 µM (UACC-62 [1]): 94%
GI50 (HOP-62 [2]): 1630 nM
TGI (HOP-62 [2]): 2980 nM
growth at 100 µM (MDA-MB-468): -33%
growth at 100 µM (BT-549): -32%
growth at 100 µM (MDA-MB-231): -63%
growth at 100 µM (DU-145): -75%
growth at 0.1 µM (MDA-MB-435): 98%
growth at 0.1 µM (HCT-116 [3]): 99%
growth at 0.1 µM (HL-60(TB)): 94%
growth at 0.01 µM [4]: 95%
growth at 100 µM (SNB-19): -34%
growth at 100 µM (HCT-116 [5]): 1%
growth at 100 µM (NCI-H460 [6]): -28%
growth at 100 µM (HOP-62 [7]): -36%
growth at 100 µM (MOLT-4): 2%
growth at 0.01 µM (786-0 [8]): 98%
growth at 0.01 µM (SK-OV-3): 97%
growth at 0.01 µM (SK-MEL-28): 98%
growth at 0.01 µM (NCI-H23): 96%
growth at 0.01 µM (SR): 97%
GI50 [9]: 1360 nM
TGI [9]: 2880 nM
GI50 (OVCAR-8): 1560 nM
TGI (OVCAR-8): 3.25 µM
GI50 (UACC-62 [10]): 1550 nM
TGI (UACC-62 [10]): 2890 nM
CC50 (UACC-62 [10]; read-out: LC50 (the source's name)): 5.38 µM
GI50 (SF-268): 1540 nM
TGI (SF-268): 3220 nM
growth at 1 µM [11]: 71%
inhibition of growth at 10 µM (HOP-92 [12]): 50%
growth at 1 µM (SK-MEL-5): 91%
growth at 1 µM (M14): 88%
growth at 1 µM (Malme-3M): 98%
growth at 1 µM (U-251): 89%
growth at 1 µM (SW-620): 80%
growth at 1 µM (NCI-H460 [13]): 97%
growth at 1 µM (HOP-92 [14]): 70%
growth at 0.1 µM (T47D): 92%
growth at 0.1 µM (TK-10): 99%
growth at 0.1 µM (786-0 [15]): 98%

C=CCn1c(C)nc2cc(Nc3nc(Nc4ccc5nc(C)n(CC=C)c5c4)c4ccccc4n3)ccc21
growth at 0.1 µM (UACC-62 [1]): 98%
GI50 (HOP-62 [2]): 232 nM
TGI (HOP-62 [2]): 552 nM
growth at 100 µM (MDA-MB-468): -2%
growth at 100 µM (BT-549): -46%
growth at 100 µM (MDA-MB-231): -46%
growth at 100 µM (DU-145): -98%
growth at 0.1 µM (MDA-MB-435): 97%
growth at 0.1 µM (HCT-116 [3]): 102%
growth at 0.1 µM (HL-60(TB)): 96%
growth at 0.01 µM [4]: 90%
growth at 100 µM (SNB-19): -35%
growth at 100 µM (HCT-116 [5]): 3%
growth at 100 µM (NCI-H460 [6]): 1%
growth at 100 µM (HOP-62 [7]): -38%
growth at 100 µM (MOLT-4): -18%
growth at 0.01 µM (786-0 [8]): 99%
growth at 0.01 µM (SK-OV-3): 95%
growth at 0.01 µM (SK-MEL-28): 108%
growth at 0.01 µM (NCI-H23): 95%
growth at 0.01 µM (SR): 95%
GI50 [9]: 1340 nM
LC50 (concentration causing 50% net cell kill) [9]: 5.17 µM
TGI [9]: 2630 nM
GI50 (OVCAR-8): 284 nM
LC50 (OVCAR-8): > 100 µM
GI50 (UACC-62 [10]): 1260 nM
TGI (UACC-62 [10]): 2590 nM
GI50 (SF-268): 1040 nM
LC50 (50% lethal concentration) (SF-268): 4.73 µM
TGI (SF-268): 2210 nM
growth at 1 µM [11]: 72%
growth at 1 µM (SK-MEL-5): 78%
growth at 1 µM (M14): 72%
growth at 1 µM (Malme-3M): 120%
growth at 1 µM (U-251): -88%
growth at 1 µM (SW-620): -69%
growth at 1 µM (NCI-H460 [13]): -53%
growth at 1 µM (HOP-92 [14]): 45%
growth at 0.1 µM (T47D): 94%
growth at 0.1 µM (TK-10): 100%
growth at 0.1 µM (786-0 [15]): 98%
